From article PMC10469688, “Comparative pharmacokinetics and safety evaluation of high dosage regimens of Andrographis paniculata aqueous extract after single and multiple oral administration in healthy participants” (Frontiers in Pharmacology, 2023)
Where two headings read alike, the source gives them in different places.

How the values were obtained:
[1] = Cumulative urinary excretion after single oral administration of A. paniculata aqueous extract capsules in healthy participants; format: in vivo, human; settings: for Cumulative urine: urine T 0–48 h
Description: (§1) An opened-label, two-dosage, single- and multiple-oral dosing, single center, phase I safety and pharmacokinetic study was conducted in healthy participants while they were under a fasting condition. […] Two weeks prior to the beginning of the clinical study, the volunteers were advised to abstain from other dietary supplements, herbal products, or any concomitant medicines. During the period of the study, no other medications were allowed. All participants fasted overnight for at least 8 h before drug administration. The study conducted a single-dose investigation on day 1 by oral administering A. paniculata extract capsules once in both groups. Twelve participants in group 1 received 3 capsules orally (equivalent to 60 mg of andrographolide) with 240 mL of water, while another twelve participants in group 2 received 6 capsules (equivalent to 120 mg of andrographolide). This was followed by serial blood sampling for up to 24 h after dosing. For blood collection, 6 mL of venous blood in EDTA tube was collected via a forearm vein catheter at each time point including pre-dose (0 h), and post-dose after oral administration (T 0.167, 0.333, 0.5, 0.75, 1, 1.5, 2, 4, 6, 8, 10, 12 and 24 h). Subsequently, observation of elimination continued until 48 h post-dose to ensure complete excretion of the major active diterpenoids through urine. Urine samples were collected at day 0 (the day prior to dosing) and day 1–2 (T 0–4, 4–8, 8–12,12–24, 24–32, 32–40, and 40–48 h after dosing). The study then proceeded to investigate multiple doses in both groups by administering continuous oral doses from day 3 until the morning of day 5. (dosing at T48, 56, 64, 72, 80, 88, and 96 h). In group 1, three capsules were administered orally before meals, three times a day (3 × 3 capsules at 8-h intervals, calculated as 180 mg/day of andrographolide); whereas in group 2, six capsules were administered daily, three times a day (6 × 3 capsules at 8-h intervals, calculated as 360 mg/day of andrographolide). For serial blood sampling of multiple doses, 6 mL of blood samples were collected starting in the morning of day 5 (sampling timepoints T 96, 96.167, 96.333, 96.5, 96.75, 97, 97.5, 98, 100, 102, and 104 h post dose).
(§2) All collected blood samples were centrifuged at 4,000 rpm, 4^οC, for 5 min. Plasma was collected and stored in cryotubes at −70^οC until analysis. Urine was kept as 10 mL aliquot samples at each time point and stored at −70^οC until analysis. Extraction was performed by protein precipitation method as previously reported ([Songvut et al., 2023]). Briefly, 50 µL of either a plasma or urine sample was mixed with 200 µL of methanol containing an internal standard (IS) of digoxin (50 ng/mL). Pretreated samples were vortexed for 10 min and were then centrifuged at 12,000 rpm, 4°C, for 10 min. The supernatants were filtered through a 0.2 µm PVDF membrane and were subsequently transferred to vials for HPLC-MS/MS analysis.
(§3) Hydrolysis of the glucuronidated and sulfated conjugates was conducted by enzymatic incubation as our previous published method ([Songvut et al., 2023]). To analyze the metabolic conjugations, 50 μL of either a plasma or urine sample was pre-incubated at 37^οC with 50 µL of either of β-glucuronidase in sodium phosphate buffer (pH 6.8) for 30 min, or sulfatase in sodium acetate buffer (pH 5) for 2 h. IS (50 ng/mL) was then added along with 150 μL of methanol to precipitate protein. The extracted samples were then vortexed and centrifuged at 12,000 rpm, 4^οC, for 10 min. The supernatants were collected by filtering through a 0.2-µm PVDF membrane before HPLC-MS/MS injection.
(§4) Analysis for the concentrations of targeted compounds in plasma and urine samples were carried out using HPLC-MS/MS at the Laboratory of Pharmacology, Chulabhorn Research Institute, Bangkok, Thailand. The quantitative determination was performed according to a previously validated method ([Songvut et al., 2023]). […]

[2] = Plasma pharmacokinetics after single and multiple oral administration of A. paniculata aqueous extract capsules in healthy participants (HPLC-MS/MS, non-compartmental analysis); format: in vivo, human; settings: for CL/F / AUC(0-inf) / AUC(0-t) / MRT / Vd/F / half-life / Tmax / Cmax: human; for CL/F / AUC(0-inf) / AUC(0-t) / MRT / Vd/F / half-life / Tmax: plasma; for AUC(0-inf): read-out: AUC(0-inf); for MRT: read-out: MRT; for Vd/F: read-out: Vd/F; for Tmax: read-out: Tmax; for Cmax: read-out: Cmax
Description: as §1, §2, §3, §4

[3] = parameters: method as in Panossian et al., 2000; settings: previous pharmacokinetic studies; ref Panossian et al., 2000; cited from earlier work
[4] = single oral dose equivalent to 60 mg andrographolide, n = 12, mean ± SD
[5] = single oral dose equivalent to 120 mg andrographolide, n = 11, mean ± SD
[6] = multiple oral doses 60 mg × 3 times/day of andrographolide, n = 12, mean ± SD
[7] = multiple oral doses 60 mg × 3 times/day of andrographolide, n = 12, mean ± SD, read-out: AUC(0–8h)
[8] = multiple oral doses 60 mg × 3 times/day of andrographolide, n = 12, median [IQR]
[9] = multiple oral doses 120 mg × 3 times/day of andrographolide, n = 11, mean ± SD
[10] = multiple oral doses 120 mg × 3 times/day of andrographolide, n = 11, mean ± SD, read-out: AUC(0–8h)
[11] = multiple oral doses 120 mg × 3 times/day of andrographolide, n = 11, median [IQR]
[12] = single oral dose equivalent to 60 mg andrographolide, n = 12, mean ± SD, read-out: AUC(0–24h)
[13] = single oral dose equivalent to 60 mg andrographolide, n = 12, median [IQR]
[14] = single oral dose equivalent to 120 mg andrographolide, n = 11, mean ± SD, read-out: AUC(0–24h)
[15] = single oral dose equivalent to 120 mg andrographolide, n = 11, median [IQR]
[16] = multiple oral doses 60 mg × 3 times/day of andrographolide, plasma T 0–8 h, n = 12, mean ± SD
[17] = multiple oral doses 120 mg × 3 times/day of andrographolide, plasma T 0–8 h, n = 11, mean ± SD
[18] = single oral dose equivalent to 60 mg andrographolide, plasma T 0–24 h, n = 12, mean ± SD
[19] = single oral dose equivalent to 120 mg andrographolide, plasma T 0–24 h, n = 11, mean ± SD

Cumulative urine [1, 4] | Cumulative urine [1, 5] | CL/F [2, 6] | AUC(0-t) [2, 7] | MRT [2, 6] | Vd/F [2, 6] | half-life [2, 8] | Tmax [2, 8] | CL/F [2, 9] | AUC(0-t) [2, 10] | MRT [2, 9] | Vd/F [2, 9] | half-life [2, 11] | Tmax [2, 11] | CL/F [2, 4] | AUC(0-inf) [2, 4] | AUC(0-t) [2, 12] | MRT [2, 4] | Vd/F [2, 4] | half-life [2, 13] | SMILES | other results
24.0 ± 18.1 µg | 66.7 ± 29.3 µg | 65 mL/min/kg | 69.7 ± 12.9 ng·h/mL | 1.7 ± 0.22 h | 3.4 ± 0.78 L/kg | 0.6 h | 1 h | 71.7 mL/min/kg | 128 ± 29.1 ng·h/mL | 1.9 ± 0.18 h | 1.2 ± 0.29 L/kg | 0.19 h | 1 h | 36.7 mL/min/kg | 41 ± 4.9 ng·h/mL | 41 ± 4.9 ng·h/mL | 1.8 ± 0.33 h | 0.74 ± 0.16 L/kg | 0.23 h | C=C1CC[C@@H]2[C@](C)(CO[C@@H]3O[C@H](CO)[C@@H](O)[C@H](O)[C@H]3O)CCC[C@@]2(C)[C@@H]1CCC1=CCOC1=O [Neoandrographolide, neoandrographolide] | Detectability as conjugated metabolites in plasma ([2]; glucuronide and sulfate derivatives): less detectable; AUC(0-inf) [2, 6]: 69.7 ± 12.9 ng·h/mL; AUC(0-inf) [2, 9]: 128 ± 29.1 ng·h/mL; Tmax [2, 13]: 0.9 h; CL/F [2, 5]: 88.3 mL/min/kg; AUC(0-inf) [2, 5]: 104 ± 22.6 ng·h/mL; AUC(0-t) [2, 14]: 104 ± 22.6 ng·h/mL; MRT [2, 5]: 2.2 ± 0.22 h; Vd/F [2, 5]: 1.5 ± 0.33 L/kg; half-life [2, 15]: 0.19 h; Tmax [2, 15]: 0.8 h; Cmax [2, 16]: 34.8 ± 6.3 ng/mL; Cmax [2, 17]: 60.7 ± 12.2 ng/mL; Cmax [2, 18]: 24.4 ± 5.6 ng/mL; Cmax [2, 19]: 50.4 ± 19.2 ng/mL
372 ± 159 µg | 1,193±553 μg | 75 mL/min/kg | 195 ± 24 ng·h/mL | 4.3 ± 0.99 h | 18 ± 8 L/kg | 2.3 h | 0.65 h | 91.7 mL/min/kg | 345 ± 48.8 ng·h/mL | 3.4 ± 0.45 h | 14.7 ± 3.7 L/kg | 1.7 h | 0.8 h | 81.7 mL/min/kg | 210 ± 25.4 ng·h/mL | 210 ± 25.4 ng·h/mL | 6 ± 0.45 h | 9 ± 1.66 L/kg | 1.3 h | C=C1CC[C@@H]2[C@](C)(CO)[C@H](O)CC[C@@]2(C)[C@@H]1C/C=C1/C(=O)OC[C@H]1O [Andrographolide, andrographolide] | Amount excreted in urine on doubling the oral dose ([1]; 60 vs 120 mg of andrographolide): nearly corresponding doubling; Tmax [3]: 1.36 h; Tmax [2, 13]: 0.8 h; CL/F [2, 5]: 100 mL/min/kg; AUC(0-inf) [2, 5]: 345 ± 63.5 ng·h/mL; AUC(0-t) [2, 14]: 345 ± 63.5 ng·h/mL; MRT [2, 5]: 5.3 ± 0.63 h; Vd/F [2, 5]: 10.8 ± 1.6 L/kg; half-life [2, 15]: 1.2 h; Tmax [2, 15]: 0.8 h; Cmax [2, 16]: 85.9 ± 19 ng/mL; Cmax [2, 17]: 172 ± 54.4 ng/mL; Cmax [2, 18]: 72.1 ± 28.7 ng/mL; Cmax [2, 19]: 112 ± 33.4 ng/mL
